# Assay results reported in ChEMBL document CHEMBL3885861, “Open TG-GATES”.
# Species: Rattus norvegicus
# Experiment: Open TG-GATES - Regimen: Daily Repeat
# Format: toxicity, organism-based, Sprague-Dawley
# Set-up: regimen Daily Repeat, gender Male, age 6 weeks
# Details: in vivo, po, 3 mg/kg, route gavage, dose level Low; for APTT / Bas / Eos / Fbg / Hb / Ht / Lym / MCH / MCHC / MCV / Mono / Neu / PT / Plat / RBC / Ret / WBC: tissue Blood; for KIDNEY_L / KIDNEY_R / KIDNEY_TOTAL: tissue Kidney; for LIVER: tissue Liver; for A/G / ALP / ALT / AST / BUN / CRE / Ca / Cl / DBIL / GLC / IP / K / LDH / Na / PL / RALB / TBIL / TC / TG / TP / gamma-GTP: tissue Plasma
structure (smiles),measurement,setting,value
C=CCO [ALLYL ALCOHOL],TERMINAL_BW,"72 h, time 3 day",238.5 g
same,APTT,"72 h, time 3 day",20.1 s
same,Bas,"72 h, time 3 day",0%
same,Eos,"72 h, time 3 day",1.2%
same,Fbg,"72 h, time 3 day",228.4 mg/dL
same,Hb,"72 h, time 3 day",13.8 g/dL
same,Ht,"72 h, time 3 day",40%
same,Lym,"72 h, time 3 day",77.8%
same,MCH,"72 h, time 3 day",20.8 pg
same,MCHC,"72 h, time 3 day",34.5%
same,MCV,"72 h, time 3 day",60.4 fL
same,Mono,"72 h, time 3 day",2.8%
same,Neu,"72 h, time 3 day",17.8%
same,PT,"72 h, time 3 day",11.6 s
same,Plat,"72 h, time 3 day",135.9 x10_4/uL
same,RBC,"72 h, time 3 day",662 x10_4/ul
same,Ret,"72 h, time 3 day",5.2%
same,WBC,"72 h, time 3 day",117.9 x10_2/uL
same,KIDNEY_L,"72 h, time 3 day",1 g
same,KIDNEY_R,"72 h, time 3 day",1 g
same,KIDNEY_TOTAL,"72 h, time 3 day",2 g
same,LIVER,"72 h, time 3 day",11.5 g
same,A/G,"72 h, time 3 day",1.6
same,ALP,"72 h, time 3 day",1089.8 IU/L
same,ALT,"72 h, time 3 day",37.6 IU/L
same,AST,"72 h, time 3 day",63.8 IU/L
same,BUN,"72 h, time 3 day",16.2 mg/dL
same,CRE,"72 h, time 3 day",0.5 mg/dL
same,Ca,"72 h, time 3 day",10.8 mg/dL
same,Cl,"72 h, time 3 day",103.2 meq/L
same,DBIL,"72 h, time 3 day",0.076 mg/dL
same,GLC,"72 h, time 3 day",225.8 mg/dL
same,IP,"72 h, time 3 day",7.1 mg/dL
same,K,"72 h, time 3 day",4.3 meq/L
same,LDH,"72 h, time 3 day",204.6 IU/L
same,Na,"72 h, time 3 day",140.4 meq/L
same,PL,"72 h, time 3 day",153 mg/dL
same,RALB,"72 h, time 3 day",3.4 g/dL
same,TBIL,"72 h, time 3 day",0.1 mg/dL
same,TC,"72 h, time 3 day",79.2 mg/dL
same,TG,"72 h, time 3 day",91.6 mg/dL
same,TP,"72 h, time 3 day",5.6 g/dL
same,gamma-GTP,"72 h, time 3 day",0.6 IU/L
same,TERMINAL_BW,"[…], time 7 day",274.1 g
same,TERMINAL_BW,"[…], time 14 day",304.7 g
same,TERMINAL_BW,"[…], time 28 day",380.5 g
same,APTT,"[…], time 7 day",19.5 s
same,Bas,"[…], time 7 day",0%
same,Eos,"[…], time 7 day",1%
same,Fbg,"[…], time 7 day",220.8 mg/dL
same,Hb,"[…], time 7 day",13.7 g/dL
same,Ht,"[…], time 7 day",40.3%
same,Lym,"[…], time 7 day",80.6%
same,MCH,"[…], time 7 day",20.5 pg
same,MCHC,"[…], time 7 day",34%
same,MCV,"[…], time 7 day",60.4 fL
same,Mono,"[…], time 7 day",2.6%
same,Neu,"[…], time 7 day",15.8%
same,PT,"[…], time 7 day",11.9 s
same,Plat,"[…], time 7 day",135 x10_4/uL
same,RBC,"[…], time 7 day",667.2 x10_4/ul
same,Ret,"[…], time 7 day",5.1%
same,WBC,"[…], time 7 day",128.3 x10_2/uL
same,APTT,"[…], time 14 day",20.1 s
same,Bas,"[…], time 14 day",0%
same,Eos,"[…], time 14 day",1.4%
same,Fbg,"[…], time 14 day",225.8 mg/dL
same,Hb,"[…], time 14 day",14.5 g/dL
same,Ht,"[…], time 14 day",42%
same,Lym,"[…], time 14 day",85.4%
same,MCH,"[…], time 14 day",20.3 pg
same,MCHC,"[…], time 14 day",34.6%
same,MCV,"[…], time 14 day",58.7 fL
same,Mono,"[…], time 14 day",2.4%
same,Neu,"[…], time 14 day",10.6%
same,PT,"[…], time 14 day",12 s
same,Plat,"[…], time 14 day",113.9 x10_4/uL
same,RBC,"[…], time 14 day",715.2 x10_4/ul
same,Ret,"[…], time 14 day",3.5%
same,WBC,"[…], time 14 day",110.3 x10_2/uL
same,APTT,"[…], time 28 day",20.8 s
same,Bas,"[…], time 28 day",0%
same,Eos,"[…], time 28 day",1%
same,Fbg,"[…], time 28 day",216.8 mg/dL
same,Hb,"[…], time 28 day",15.2 g/dL
same,Ht,"[…], time 28 day",43.8%
same,Lym,"[…], time 28 day",80%
same,MCH,"[…], time 28 day",19.3 pg
same,MCHC,"[…], time 28 day",34.7%
same,MCV,"[…], time 28 day",55.5 fL
same,Mono,"[…], time 28 day",2.2%
same,Neu,"[…], time 28 day",16%
same,PT,"[…], time 28 day",12 s
same,Plat,"[…], time 28 day",106.9 x10_4/uL
same,RBC,"[…], time 28 day",787.6 x10_4/ul
same,Ret,"[…], time 28 day",2.7%
same,WBC,"[…], time 28 day",103.8 x10_2/uL
same,KIDNEY_L,"[…], time 7 day",1.1 g
same,KIDNEY_R,"[…], time 7 day",1.1 g
same,KIDNEY_TOTAL,"[…], time 7 day",2.2 g
same,KIDNEY_L,"[…], time 14 day",1.2 g
same,KIDNEY_R,"[…], time 14 day",1.1 g
same,KIDNEY_TOTAL,"[…], time 14 day",2.3 g
same,KIDNEY_L,"[…], time 28 day",1.3 g
same,KIDNEY_R,"[…], time 28 day",1.4 g
same,KIDNEY_TOTAL,"[…], time 28 day",2.7 g
same,LIVER,"[…], time 7 day",13 g
same,LIVER,"[…], time 14 day",13 g
same,LIVER,"[…], time 28 day",15.8 g
same,A/G,"[…], time 7 day",1.6
same,ALP,"[…], time 7 day",883.8 IU/L
same,ALT,"[…], time 7 day",31.2 IU/L
same,AST,"[…], time 7 day",61.4 IU/L
same,BUN,"[…], time 7 day",16.2 mg/dL
same,CRE,"[…], time 7 day",0.4 mg/dL
same,Ca,"[…], time 7 day",10.9 mg/dL
same,Cl,"[…], time 7 day",101.6 meq/L
same,DBIL,"[…], time 7 day",0.088 mg/dL
same,GLC,"[…], time 7 day",221.4 mg/dL
same,IP,"[…], time 7 day",6.9 mg/dL
same,K,"[…], time 7 day",4.1 meq/L
same,LDH,"[…], time 7 day",192 IU/L
same,Na,"[…], time 7 day",141 meq/L
same,PL,"[…], time 7 day",145.6 mg/dL
same,RALB,"[…], time 7 day",3.5 g/dL
same,TBIL,"[…], time 7 day",0.1 mg/dL
same,TC,"[…], time 7 day",70.4 mg/dL
same,TG,"[…], time 7 day",120.6 mg/dL
same,TP,"[…], time 7 day",5.8 g/dL
same,gamma-GTP,"[…], time 7 day",0.8 IU/L
same,A/G,"[…], time 14 day",1.5
same,ALP,"[…], time 14 day",736.6 IU/L
same,ALT,"[…], time 14 day",39 IU/L
same,AST,"[…], time 14 day",60.2 IU/L
same,BUN,"[…], time 14 day",16.2 mg/dL
same,CRE,"[…], time 14 day",0.4 mg/dL
same,Ca,"[…], time 14 day",10.6 mg/dL
same,Cl,"[…], time 14 day",102.6 meq/L
same,DBIL,"[…], time 14 day",0.07 mg/dL
same,GLC,"[…], time 14 day",222.2 mg/dL
same,IP,"[…], time 14 day",6.3 mg/dL
same,K,"[…], time 14 day",3.6 meq/L
same,LDH,"[…], time 14 day",214.8 IU/L
same,Na,"[…], time 14 day",141.2 meq/L
same,PL,"[…], time 14 day",143 mg/dL
same,RALB,"[…], time 14 day",3.5 g/dL
same,TBIL,"[…], time 14 day",0.1 mg/dL
same,TC,"[…], time 14 day",74.8 mg/dL
same,TG,"[…], time 14 day",86.6 mg/dL
same,TP,"[…], time 14 day",5.9 g/dL
same,gamma-GTP,"[…], time 14 day",1.2 IU/L
same,A/G,"[…], time 28 day",1.2
same,ALP,"[…], time 28 day",620 IU/L
same,ALT,"[…], time 28 day",35.8 IU/L
same,AST,"[…], time 28 day",57.8 IU/L
same,BUN,"[…], time 28 day",15.2 mg/dL
same,CRE,"[…], time 28 day",0.5 mg/dL
same,Ca,"[…], time 28 day",10.4 mg/dL
same,Cl,"[…], time 28 day",102.8 meq/L
same,DBIL,"[…], time 28 day",0.076 mg/dL
same,GLC,"[…], time 28 day",218.2 mg/dL
same,IP,"[…], time 28 day",5.8 mg/dL
same,K,"[…], time 28 day",3.7 meq/L
same,LDH,"[…], time 28 day",210.8 IU/L
same,Na,"[…], time 28 day",139.8 meq/L
same,PL,"[…], time 28 day",138.6 mg/dL
same,RALB,"[…], time 28 day",3.4 g/dL
same,TBIL,"[…], time 28 day",0.1 mg/dL
same,TC,"[…], time 28 day",65.8 mg/dL
same,TG,"[…], time 28 day",114.4 mg/dL
same,TP,"[…], time 28 day",6.2 g/dL
same,gamma-GTP,"[…], time 28 day",0.6 IU/L
